This note sets out measurements from patent US9493420B2, “Quinoline derivatives and uses thereof” (Portland State University, priority 2005, dated 2016).

A short description of experiment [1]: Heme binding by UV-VIS spectrophotometric titration (association constant). Particulars: pH 5.7; heme assumed dimeric (μ-oxo). From the text:
Optionally, heme binding of RCQ compounds can be determined by any method known in the art, including, for example, spectrophotometric methods, like UV-VIS spectroscopy or NMR spectroscopy. Methods of measuring heme binding to a variety of molecules using the UV-VIS spectrum have been described (see, e.g., Xu et al., J. Inorg. Biochem., 86 (2-3):617-625, 2001; Xu et al., Antimicrob. Agents Chemother., 46(1):144-150, 2002). Generally, a heme-binding compound (such as a disclosed RCQ) is mixed in increasing concentration with heme (or a heme model compound, such as porphyrin or metalloporphyrin) and the absorbance spectrum is measured from the ultraviolet region well into the visible region (from about 300 nm to about 750 nm). This spectral range includes the so-called Soret and Q-band regions that arise from porphyrin or metalloporphyrin absorbance. Upon interaction between a heme-binding compound and heme (or a heme model compound, such as porphyrin or metalloporphyrin), decreased absorbance in the Soret region is observed. […]
In particular examples, the formation of heme-RCQ complexes can be determined by UV-VIS spectrophotometric titration, using a variety of commercially available spectrophotometers (such as a Varian-Cary 3E spectrophotometer). […] Optionally, pH can be monitored throughout the procedure to ensure that it remains unchanged. […]

Experiment [2] addresses T1, recombinant human serotonin (hSERT) transporter (Homo sapiens, UniProt P31645).
T1 construct: expressed in transfected cells; host or cells: HEK cells expressing hSERT
Put plainly: Inhibition of [3H]neurotransmitter uptake, hSERT. In kind it is cell-based. The method, then: Selected RCQs were tested for inhibition of [^3H]neurotransmitter uptake by the recombinant human serotonin (hSERT), dopamine (HEK-hDAT), and norepinephrine (hNET) transporters by a modification of the method of Eshleman et al. (J. Pharmacol. Exp. Ther., 289(2):877-885, 1999). HEK-hDAT, hSERT, and -hNET expressing cells were grown on tissue culture dishes. After removing the medium and washing the plates with Ca^2+-, Mg^2+-free phosphate buffered saline (PBS), fresh medium was added and the plates were placed in a 25° C. water bath for 5 minutes. Cells were gently lifted from the plates and cell clusters separated by trituration. 50 μL aliquots of the suspended cells were added to assay tubes containing drugs and Krebs-HEPES assay buffer in a final volume of 0.5 mL.
Competition experiments were conducted in triplicate. After a 10 minute preincubation period at 25° C., [^3H]neurotransmitter (20 nM final concentration; [^3H]DA, [^3H]5-HT, or [^3H]NE) were added, and the mixtures incubated for 10 minutes. Reactions were terminated by filtration through Wallac filtermat A filters (presoaked in 0.05% polyethylenimine), using a Tomtec cell harvester. Scintillation fluid was added to each filtered spot, and radioactivity remaining on the filters determined using a Wallac 1205 Betaplate scintillation counter.
Specific uptake was defined as the difference in uptake observed in the absence and presence of 5 μM mazindol (hDAT and hNET) or 5 μM imipramine (hSERT). Inhibition of uptake was determined by non-linear regression using Prism software.

T1 sequence (P31645 whole entry): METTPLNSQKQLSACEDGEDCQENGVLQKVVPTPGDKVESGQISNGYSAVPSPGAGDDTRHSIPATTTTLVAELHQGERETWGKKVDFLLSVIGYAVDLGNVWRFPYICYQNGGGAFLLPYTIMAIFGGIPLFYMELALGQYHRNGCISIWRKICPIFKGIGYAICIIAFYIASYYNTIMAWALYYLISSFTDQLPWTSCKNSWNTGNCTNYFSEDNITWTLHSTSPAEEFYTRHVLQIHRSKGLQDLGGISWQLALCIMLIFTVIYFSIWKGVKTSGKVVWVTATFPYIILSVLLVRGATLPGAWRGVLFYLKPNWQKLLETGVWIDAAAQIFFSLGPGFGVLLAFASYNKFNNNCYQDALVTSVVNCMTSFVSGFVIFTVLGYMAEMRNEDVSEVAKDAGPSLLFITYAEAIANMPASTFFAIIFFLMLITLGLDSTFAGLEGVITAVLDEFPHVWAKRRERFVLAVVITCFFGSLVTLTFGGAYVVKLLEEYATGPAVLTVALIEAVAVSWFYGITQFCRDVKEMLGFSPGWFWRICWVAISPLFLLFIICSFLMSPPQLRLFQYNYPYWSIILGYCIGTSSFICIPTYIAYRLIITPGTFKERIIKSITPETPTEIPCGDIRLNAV

For the compound `CN(CCCNc1ccnc2cc(Cl)ccc12)CCCN1c2ccccc2CCc2ccccc21` [RCQ_02, N′-(7-Chloro-quinolin-4-yl)-N-[3-(10,11-dihydro-dibenzo[b,f]azepin-5-yl)-propyl]-N-methyl-propane-1,3-diamine], the heme2.RCQ_02 association constant result in experiment [1] is “approximately 7.5×10^5 M^−1”. Besides, in experiment [2], the half-inhibitory concentration (IC50) turned out to be 230 nM.

As a reminder, the IC50 is the concentration that gives 50% inhibition.
